Measured values taken from PMC6979384, “Characterization of the plant homeodomain (PHD) reader family for their histone tail interactions” (Epigenetics & Chromatin, 2020).

Columns and labels:
Assay in all cases: Histone peptide microarray
Assay type in all cases: binding, human
[1] = system: CHD5 (PPCC); details: sheet "Array Heatmap"; GST-tagged CHD5 (PPCC); arrays performed twice, total replicate number n = 4
Excerpt: (§1) To more comprehensively define the histone interactions of the 31 PHD readers identified from the domain microarray analyses, we probed each on an alternate microarray platform containing a library of 293 synthetic histone peptides with single or combinatorial PTMs (Additional file 2: Figure S4 and Additional file 3: Table S2).
(§2) The 31 GST-tagged PHD readers identified in the PHD finger domain array were expressed and purified as previously. Histone peptide arrays and peptide pulldown assays were conducted as recently described (specifically, the optimized protocol from Petell et al. for the former).
(§3) Supplementary file 13072_2020_328_MOESM3_ESM.xlsx: Additional file 3: Table S2. […] Excel Tab Peptide List is a compiled list of the entire 293 histone peptide library with amino acid sequence ranges. […] Each number corresponds to the peptide number designated in Peptide List. Excel Tab Average Signals is a compiled set of binding data: chromatin reader at 0.5 μM vs. entire 293 peptide library. Data is presented as the average and standard deviation of 4 replicates. The average signals are colored to indicate signal intensity with green being strong and white being weak/low. […] Key: red= stronger relative binding; blue = weaker relative binding. Excel Tab Array info summary is a table summarizing the domains, sequence coverage, array signal range, and noise for each of the GST-tagged readers assayed on the peptide microarrays.

[2] = system: TAF3; details: sheet "Array Heatmap"; GST-tagged TAF3; arrays performed twice, total replicate number n = 4
Excerpt: as §1, §2, §3

[3] = system: BPTF (PB); details: sheet "Array Heatmap"; GST-tagged BPTF (PB); arrays performed twice, total replicate number n = 4
Excerpt: as §1, §2, §3

[4] = system: DIDO1; details: sheet "Array Heatmap"; GST-tagged DIDO1; arrays performed twice, total replicate number n = 4
Excerpt: as §1, §2, §3

[5] = system: KDM5A (3); details: sheet "Array Heatmap"; GST-tagged KDM5A (3); arrays performed twice, total replicate number n = 4
Excerpt: as §1, §2, §3

[6] = system: ING2; details: sheet "Array Heatmap"; GST-tagged ING2; arrays performed twice, total replicate number n = 4
Excerpt: as §1, §2, §3

[7] = system: RAG2; details: sheet "Array Heatmap"; GST-tagged RAG2; arrays performed twice, total replicate number n = 4
Excerpt: as §1, §2, §3

[8] = system: DPF2 (PPC2W2); details: sheet "Array Heatmap"; GST-tagged DPF2 (PPC2W2); arrays performed twice, total replicate number n = 4
Excerpt: as §1, §2, §3

[9] = system: PHF23; details: sheet "Array Heatmap"; GST-tagged PHF23; arrays performed twice, total replicate number n = 4
Excerpt: as §1, §2, §3

[10] = system: ING4; details: sheet "Array Heatmap"; GST-tagged ING4; arrays performed twice, total replicate number n = 4
Excerpt: as §1, §2, §3

[11] = system: KDM7A; details: sheet "Array Heatmap"; GST-tagged KDM7A; arrays performed twice, total replicate number n = 4
Excerpt: as §1, §2, §3

[12] = system: CHD5 (PCC); details: sheet "Array Heatmap"; GST-tagged CHD5 (PCC); arrays performed twice, total replicate number n = 4
Excerpt: as §1, §2, §3

[13] = system: ING1; details: sheet "Array Heatmap"; GST-tagged ING1; arrays performed twice, total replicate number n = 4
Excerpt: as §1, §2, §3

[14] = system: MORC3 (CW); details: sheet "Array Heatmap"; GST-tagged MORC3 (CW); arrays performed twice, total replicate number n = 4
Excerpt: as §1, §2, §3

[15] = system: CHD4 (PPCC); details: sheet "Array Heatmap"; GST-tagged CHD4 (PPCC); arrays performed twice, total replicate number n = 4
Excerpt: as §1, §2, §3

[16] = system: MLL5; details: sheet "Array Heatmap"; GST-tagged MLL5; arrays performed twice, total replicate number n = 4
Excerpt: as §1, §2, §3

[17] = system: KDM4C (TTP); details: sheet "Array Heatmap"; GST-tagged KDM4C (TTP); arrays performed twice, total replicate number n = 4
Excerpt: as §1, §2, §3

[18] = system: KDM5B (3); details: sheet "Array Heatmap"; GST-tagged KDM5B (3); arrays performed twice, total replicate number n = 4
Excerpt: as §1, §2, §3

[19] = system: PHF13; details: sheet "Array Heatmap"; GST-tagged PHF13; arrays performed twice, total replicate number n = 4
Excerpt: as §1, §2, §3

[20] = system: PHF8; details: sheet "Array Heatmap"; GST-tagged PHF8; arrays performed twice, total replicate number n = 4
Excerpt: as §1, §2, §3

[21] = system: ING5; details: sheet "Array Heatmap"; GST-tagged ING5; arrays performed twice, total replicate number n = 4
Excerpt: as §1, §2, §3

[22] = system: ING3; details: sheet "Array Heatmap"; GST-tagged ING3; arrays performed twice, total replicate number n = 4
Excerpt: as §1, §2, §3

[23] = system: PHF2; details: sheet "Array Heatmap"; GST-tagged PHF2; arrays performed twice, total replicate number n = 4
Excerpt: as §1, §2, §3

[24] = system: PHRF1 (RP); details: sheet "Array Heatmap"; GST-tagged PHRF1 (RP); arrays performed twice, total replicate number n = 4
Excerpt: as §1, §2, §3

[25] = system: TRIM66 (PB); details: sheet "Array Heatmap"; GST-tagged TRIM66 (PB); arrays performed twice, total replicate number n = 4
Excerpt: as §1, §2, §3

[26] = system: BAZ2B; details: sheet "Array Heatmap"; GST-tagged BAZ2B; arrays performed twice, total replicate number n = 4
Excerpt: as §1, §2, §3

[27] = system: AIRE (PP); details: sheet "Array Heatmap"; GST-tagged AIRE (PP); arrays performed twice, total replicate number n = 4
Excerpt: as §1, §2, §3

[28] = system: SP140L; details: sheet "Array Heatmap"; GST-tagged SP140L; arrays performed twice, total replicate number n = 4
Excerpt: as §1, §2, §3

[29] = system: PHF21A; details: sheet "Array Heatmap"; GST-tagged PHF21A; arrays performed twice, total replicate number n = 4
Excerpt: as §1, §2, §3

[30] = system: KDM5B (1); details: sheet "Array Heatmap"; GST-tagged KDM5B (1); arrays performed twice, total replicate number n = 4
Excerpt: as §1, §2, §3

[31] = system: KDM5A (1); details: sheet "Array Heatmap"; GST-tagged KDM5A (1); arrays performed twice, total replicate number n = 4
Excerpt: as §1, §2, §3

“H2A (1-17): H2A 1-17 (SGRGKQGGKARAKAKTR; UniProt P0C0S8 2-18, looked up, fragment)” was tested, and the “Array Heatmap signal, CHD5 (PPCC)” value [1] was 0.4702, the “Array Heatmap signal, TAF3” value [2] was 0.223 and the “Array Heatmap signal, BPTF (PB)” value [3] was 0.2947. The “Array Heatmap signal, DIDO1” value [4] was 0.6067, the “Array Heatmap signal, KDM5A (3)” value [5] was 0.3954 and the “Array Heatmap signal, ING2” value [6] was 0.6045. For the same substance, the “Array Heatmap signal, RAG2” value [7] was 0.2183, the “Array Heatmap signal, DPF2 (PPC2W2)” value [8] was 0.6154 and the “Array Heatmap signal, PHF23” value [9] was 0.4782. The “Array Heatmap signal, ING4” value [10] was 0.3938, the “Array Heatmap signal, KDM7A” value [11] was 0.3435 and the “Array Heatmap signal, CHD5 (PCC)” value [12] was 0.7396. For the same substance, the “Array Heatmap signal, ING1” value [13] was 0.4879, the “Array Heatmap signal, MORC3 (CW)” value [14] was 0.3444 and the “Array Heatmap signal, CHD4 (PPCC)” value [15] was 0.5048. The “Array Heatmap signal, MLL5” value [16] was 0.5078, the “Array Heatmap signal, KDM4C (TTP)” value [17] was 0.4226 and the “Array Heatmap signal, KDM5B (3)” value [18] was 0.4194. The “Array Heatmap signal, PHF13” value [19] was 0.527, the “Array Heatmap signal, PHF8” value [20] was 0.3118 and the “Array Heatmap signal, ING5” value [21] was 0.2875. The “Array Heatmap signal, ING3” value [22] was 0.4033, the “Array Heatmap signal, PHF2” value [23] was 0.4566 and the “Array Heatmap signal, PHRF1 (RP)” value [24] was 0.4275. For the same substance, the “Array Heatmap signal, TRIM66 (PB)” value [25] was 0.5087, the “Array Heatmap signal, BAZ2B” value [26] was 0.3936 and the “Array Heatmap signal, AIRE (PP)” value [27] was 0.3792. For the same substance, the “Array Heatmap signal, SP140L” value [28] was 0.3296, the “Array Heatmap signal, PHF21A” value [29] was 0.4214 and the “Array Heatmap signal, KDM5B (1)” value [30] was 0.663. For the same substance, the “Array Heatmap signal, KDM5A (1)” value [31] was 0.4209.
